The test system of one assay is Pseudomonas aeruginosa. Briefly: Antibacterial activity against Pseudomonas aeruginosa AR-0239. The format is functional.
Assay [1] deals with Salmonella typhimurium. Kind of assay: Antibacterial activity against Salmonella typhimurium AR-0635 harboring mcr-4 gene. Type of assay: functional, Salmonella enterica subsp. enterica serovar Typhimurium. The following applies: Salmonella enterica.
The subject of a further assay is Acinetobacter baumannii. Kind of assay: Antibacterial activity against Acinetobacter baumannii AR-0310. Type of assay: functional.
Assay [2] relates to Escherichia coli. Kind of assay: Antibacterial activity against Escherichia coli AR-0538 harboring mcr-2 gene. Type of assay: functional.
For assay [3], the system named is Salmonella typhimurium. Briefly: Antibacterial activity against Salmonella typhimurium AR-0539 harboring mcr-3 gene. Conditions: Salmonella enterica. The format is functional, Salmonella enterica subsp. enterica serovar Typhimurium.
The subject of a further assay is Klebsiella pneumoniae. Briefly: Antibacterial activity against Klebsiella pneumoniae AR-0497 harboring mcr-1 gene. The format is functional.
Assay [4] concerns Escherichia coli. Briefly: Antibacterial activity against Escherichia coli AR-0493 harboring mcr-1 gene. Type of assay: functional.

In ChEMBL document CHEMBL6087399, “Extended structure-activity relationship studies of the [1,2,5]oxadiazolo[3,4-b]pyrazine-containing colistin adjuvants” (Bioorg Med Chem Lett, 2025) one finds MIC data, which are given here for one compound.

Where a SMILES comes first, the peptide text is derived from it.

Broadly, the MIC is the lowest concentration that inhibits growth of the organism. A higher MIC goes with a need for much substance.

For `[H][C@@]1([C@@H](C)O)NC(=O)[C@H](CCN)NC(=O)[C@H](CCN)NC(=O)[C@H](CC(C)C)NC(=O)[C@@H](CC(C)C)NC(=O)[C@H](CCN)NC(=O)[C@@H](NC(=O)[C@H](CCN)NC[C@H](NC(=O)[C@H](CCN)NC(=O)CCCCC(C)C)[C@@H](C)O)CCNC1=O.[H][C@@]1([C@@H](C)O)NC(=O)[C@H](CCN)NC(=O)[C@H](CCN)NC(=O)[C@H](CC(C)C)NC(=O)[C@@H](CC(C)C)NC(=O)[C@H](CCN)NC(=O)[C@@H](NC(=O)[C@H](CCN)NC[C@H](NC(=O)[C@H](CCN)NC(=O)CCCCC(C)CC)[C@@H](C)O)CCNC1=O` (stereo partly drawn) (HELM PEPTIDE1{[C[C@@H](O)[C@H](CN[C@@H](CCN)C(=O)[*:2])N[*:3]].[Dab].[Dab].[dL].L.[Dab].[Dab].T}|PEPTIDE2{[CCC(C)CCCCC(=O)[*:2]].[Dab]}$PEPTIDE1,PEPTIDE2,1:R3-2:R2|PEPTIDE1,PEPTIDE1,2:R3-8:R2$$$V2.0), the MIC with Pseudomonas aeruginosa was found to be 4 µg/mL; in the assay on Salmonella typhimurium [1], 16 µg/mL; against Acinetobacter baumannii it was 8 µg/mL; against Escherichia coli [2] it was 8 µg/mL; against Salmonella typhimurium [3], 8 µg/mL; against Klebsiella pneumoniae it was 16 µg/mL. The compound also came in with an MIC against Escherichia coli [4] of 8 µg/mL.
